Laboratory results: the supplement of paper PMC10307832

What was measured:
Test in all cases: relative viability (nuclei count vs DMSO), 5 days (fraction); higher = more cells survive
CUDC-101 + Luminespib = compound: C#Cc1cccc(Nc2ncnc3cc(OC)c(OCCCCCCC(=O)NO)cc23)c1 [CUDC-101] + CCNC(=O)c1noc(-c2cc(C(C)C)c(O)cc2O)c1-c1ccc(CN2CCOCC2)cc1 [Luminespib] (partner 0.01 µM)
In short: (§1)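 Five library-drug doses in √10 steps were combined with a fixed anchor-drug dose, or a single drug was given alone, by pin tool to lung cancer cell lines in 1536-well plates the day after seeding. Nuclei were stained and counted after 5 days. Relative viability is the nuclei count in treated wells over that in vehicle wells, taken as the median of duplicate plates.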

[1] = compound: C1=CC=C2C(=C1)N=C(S2)C(C#N)C3=NC(=NC=C3)NCCC4=CN=CC=C4 + CS(=O)(=O)N1CCN(Cc2cc3nc(-c4cccc5[nH]ncc45)nc(N4CCOCC4)c3s2)CC1 [Pictilisib] (partner 1 µM)
In short: as §1

NVP-TAE684 + Pemetrexed = compound: COc1cc(N2CCC(N3CCN(C)CC3)CC2)ccc1Nc1ncc(Cl)c(Nc2ccccc2S(=O)(=O)C(C)C)n1 [NVP-TAE684] + Nc1nc2[nH]cc(CCc3ccc(C(=O)N[C@@H](CCC(=O)O)C(=O)O)cc3)c2c(=O)[nH]1 [Pemetrexed] (partner 0.2 µM)
In short: as §1

[2] = compound: C1=CC=C2C(=C1)N=C(S2)C(C#N)C3=NC(=NC=C3)NCCC4=CN=CC=C4 + NC(=O)Nc1cc(-c2cccc(F)c2)sc1C(=O)N[C@H]1CCCNC1 [AZD7762] (partner 0.2 µM)
In short: as §1

| Cell Line | relative viability (CUDC-101 + Luminespib; first compound 0.01 µM) | relative viability (CUDC-101 + Luminespib; first compound 0.03162 µM) | relative viability (CUDC-101 + Luminespib; first compound 0.1 µM) | relative viability (CUDC-101 + Luminespib; first compound 0.3162 µM) | relative viability (CUDC-101 + Luminespib; first compound 1 µM) | relative viability ([1]; first compound 0.005 µM) | relative viability ([1]; first compound 0.01581 µM) | relative viability ([1]; first compound 0.05 µM) | relative viability ([1]; first compound 0.1581 µM) | relative viability ([1]; first compound 0.5 µM) | relative viability (NVP-TAE684 + Pemetrexed; first compound 0.2 µM) | relative viability (NVP-TAE684 + Pemetrexed; first compound 0.6325 µM) | relative viability (NVP-TAE684 + Pemetrexed; first compound 2 µM) | relative viability ([2]; first compound 0.005 µM) | relative viability ([2]; first compound 0.01581 µM) | relative viability ([2]; first compound 0.05 µM) | relative viability ([2]; first compound 0.1581 µM) | relative viability ([2]; first compound 0.5 µM) |
| --- | --- | --- | --- | --- | --- | --- | --- | --- | --- | --- | --- | --- | --- | --- | --- | --- | --- | --- |
| NCI-H520 | 0.241 | 0.221 | 0.208 | 0.204 | 0.245 | 0.178 | 0.328 | 0.307 | 0.362 | 0.256 | 0.694 | 0.823 | 0.326 |  |  |  |  |  |
| NCI-H2342 | 0.764 | 0.644 | 0.829 | 0.737 | 0.692 |  |  |  |  |  | 0.93 | 0.771 | 0.493 | 0.546 | 0.484 | 0.49 | 0.583 | 0.467 |
| NCI-H522 | 1.18 | 1.19 | 1.03 | 1.66 | 0.686 |  |  |  |  |  | 1.13 | 1.07 | 0.799 | 0.885 | 0.654 | 0.768 | 0.787 | 0.839 |
| NCI-H661 | 0.985 | 0.975 | 0.876 | 0.835 | 0.674 | 0.382 | 0.358 | 0.44 | 0.403 | 0.211 | 0.959 | 0.924 | 0.894 |  |  |  |  |  |
| Calu-6 |  |  |  |  |  | 0.74 | 0.885 | 0.938 | 0.932 | 0.806 |  |  |  |  |  |  |  |  |
| NCI-H2228 | 0.114 | 0.164 | 0.169 | 0.19 | 0.188 | 0.341 | 0.283 | 0.37 | 0.307 | 0.402 | 0.29 | 0.332 | 0.121 |  |  |  |  |  |
| NCI-H1703 |  |  |  |  |  | 0.242 | 0.223 | 0.218 | 0.261 | 0.252 |  |  |  | 0.118 | 0.121 | 0.123 | 0.109 | 0.108 |
| SW 1573 | 0.238 | 0.252 | 0.516 | 0.187 | 0.164 | 0.373 | 0.542 | 0.505 | 0.497 | 0.497 | 0.843 | 0.732 | 0.396 |  |  |  |  |  |
| HCC-78 |  |  |  |  |  | 0.26 | 0.167 | 0.174 | 0.25 | 0.14 | 0.886 | 0.912 | 0.93 | 0.619 | 0.593 | 0.739 | 0.697 | 0.576 |
| SK-MES-1 | 0.854 | 0.72 | 0.755 | 0.567 | 0.52 | 0.365 | 0.454 | 0.277 | 0.352 | 0.374 | 0.999 | 0.855 | 0.686 |  |  |  |  |  |
| NCI-H1623 | 0.469 | 0.46 | 0.445 | 0.632 | 0.392 |  |  |  |  |  |  |  |  |  |  |  |  |  |
| NCI-H2023 | 0.807 | 0.568 | 0.855 | 0.797 | 0.632 | 0.283 | 0.205 | 0.209 | 0.265 | 0.239 | 0.258 | 0.186 | 0.123 |  |  |  |  |  |
| NCI-H1563 | 0.447 | 0.526 | 0.506 | 0.531 | 0.495 | 0.642 | 0.619 | 0.677 | 0.709 | 0.647 | 0.757 | 0.692 | 0.654 |  |  |  |  |  |
| EBC-1 |  |  |  |  |  | 0.398 | 0.363 | 0.352 | 0.368 | 0.275 |  |  |  |  |  |  |  |  |
| NCI-H1648 |  |  |  |  |  |  |  |  |  |  |  |  | 0.415 |  | 0.689 |  | 0.569 | 0.604 |
